From US5210097A, “Xanthocillin X monomethyl ether derivative and antitumor agent containing the same” (Meiji Seika Kaisha Ltd., priority 1989, dated 1993)
≈ marks a conversion by molar mass, not a printed value.

Experiments:
Meth-A solid tumor = assay: Inhibition of tumor growth in vivo (Meth-A solid tumor, Balb/c mouse); design: species or system murine (female Balb/c mouse); conditions: intraperitoneal, once a day for 4 days; for Tumor weight: tumor weighed two weeks after transplantation, mean ± standard deviation; for Inhibition of tumor growth: two weeks after transplantation, versus control
Method: The inhibition of tumor growth by the compounds of the present invention in vivo were evaluated in the following manner. 10^6 cells of Meth-A murine tumor cells were transplanted to the dorsal subcutaneous part of a female Balb/c mouse aged 6 weeks. On the next day of the transplantation, a test compound at each concentrations was intraperitoneally administered to the animal. The compound was suspended in a 1% solution of carboxymethyl cellulose (CMC) and thoroughly mixed ultrasonically. Alternately, it was thoroughly ground in a mortar and then suspended in a CMC solution. Thus a sample for injection was prepared. The test compound was administered once a day for 4 days continuously. To a control group, a 1% solution of CMC was administered once a day for 4 days continuously. Two weeks after the transplantation, the dorsal tumor was taken out and weighed to thereby determine the inhibition of tumor growth.

[1] = Acute toxicity, intraperitoneal; conditions: mouse, in vivo, ip, female Balb/c mice aged 7 weeks
Meth-A cells = assay: Cytotoxicity in vitro (MTT assay, 3 days incubation); assay type: cell-based, murine; conditions: Mus musculus, 72 h, read-out: 50% inhibition concentration (IC50)
Method: The cytotoxic effect of each compound of the present invention in vitro was evaluated in the following manner. Dulbecco's modified MEM medium containing 10% (v/v) of fetal calf serum was used as a medium while Meth-A solid tumor was used as a tumor. The cytotoxic effect of each compound on this tumor was examined. Meth-A cells, which had been subcultured in a carbon dioxide gas incubator, were suspended in the above-mentioned medium so as to give a density of 5×10^4 cells/ml. 135 μl portions of the suspension thus obtained were poured into 96-well microtiter plates. Each test compound was dissolved in a small amount of DMF and diluted with Dulbecco's modified MEM medium to a predetermined concentration. 15 μl portions of test compound solutions at various concentrations were added thereto and then incubated in a carbon dioxide gas incubator for 3 days. After the completion of the incubation, the 50% inhibition concentration (IC50) was determined by the MTT assay method ["Igaku no Ayumi", vol. 128, 733-735 (1984)].

[2] = tested on: conversion of arachidonic acid into prostaglandin H2; conditions: N. Kitahara et al., J. Antibiotics, 34, 1556-1561 (1981); cited from earlier work
Ehrich ascites tumor = conditions: cited from earlier work

In the case of [C-]#[N+]C(=Cc1ccc(OC)cc1)C(=Cc1ccc(OCC(=O)OCC)cc1)[N+]#[C-] [Compound No. 1], the Tumor weight (Meth-A solid tumor; 10 mg/kg/day) was 0.39 ± 0.08 g, the “Inhibition of tumor growth” value (Meth-A solid tumor; 10 mg/kg/day) was 67.5% and the LD50 [1] was 120 mg/kg. It also gave an IC50 (Meth-A cells) of 0.64 µg/mL (≈ 1.65 µM).

For [C-]#[N+]C(=Cc1ccc(OC)cc1)C(=Cc1ccc(OCc2ccccc2)cc1)[N+]#[C-] [Compound No. 2, 1-(4'-benzyloxyphenyl)-4-(4'-methoxyphenyl)-2,3-diisocyano-1,3-butadiene], the Tumor weight (Meth-A solid tumor; 30 mg/kg/day) was 0.22 ± 0.04 g, the “Inhibition of tumor growth” value (Meth-A solid tumor; 30 mg/kg/day) was 67.6% and the IC50 (Meth-A cells) was 0.7 µg/mL (≈ 1.78 µM).

For [C-]#[N+]C(=Cc1ccc(OC)cc1)C(=Cc1ccc(OCCF)cc1)[N+]#[C-] [Compound No. 3, 1-[4'-(2"-fluoroethyl)oxyphenyl]-4-(4'-methoxyphenyl)-2,3-diisocyano-1,3-butadiene], the LD50 [1] was > 120 mg/kg and the IC50 (Meth-A cells) was 1.5 µg/mL (≈ 4.31 µM).

With [C-]#[N+]C(=Cc1ccc(OC)cc1)C(=Cc1ccc(OCCCCCC)cc1)[N+]#[C-] [Compound No. 4, 1-(4'-n-hexyloxyphenyl)-4-(4'-methoxyphenyl)-2,3-diisocyano-1,3-butadiene] the Tumor weight (Meth-A solid tumor; 30 mg/kg/day) was 0.27 ± 0.20 g and the “Inhibition of tumor growth” value (Meth-A solid tumor; 30 mg/kg/day) was 71.9%.

For [C-]#[N+]C(=Cc1ccc(OC)cc1)C(=Cc1ccc(OCc2ccncc2)cc1)[N+]#[C-] [Compound No. 5, 1-[4'-(4"-pyridyl)methyloxyphenyl]-4-(4'-methoxyphenyl)-2,3-diisocyano-1,3-butadiene], the IC50 (Meth-A cells) was 0.7 µg/mL (≈ 1.78 µM).

For [C-]#[N+]C(=Cc1ccc(OC)cc1)C(=Cc1ccc(OCc2ccccn2)cc1)[N+]#[C-] [Compound No. 6, 1-[4'-(2"-pyridyl)methyloxyphenyl]-4-(4'-methoxyphenyl)-2,3-diisocyano-1,3-butadiene], the LD50 [1] was > 120 mg/kg and the IC50 (Meth-A cells) was 0.24 µg/mL (≈ 0.61 µM).

With [C-]#[N+]C(=Cc1ccc(OC)cc1)C(=Cc1ccc(OCc2ccc(C)cc2)cc1)[N+]#[C-] [Compound No. 7, 1-[4'-(4"-toluyl)methyloxyphenyl]-4-(4'-methoxyphenyl)-2,3-diisocyano-1,3-butadiene] the Tumor weight (Meth-A solid tumor; 30 mg/kg/day) was 0.60 ± 0.20 g, the “Inhibition of tumor growth” value (Meth-A solid tumor; 30 mg/kg/day) was 68.4% and the IC50 (Meth-A cells) was 1.8 µg/mL (≈ 4.43 µM).

With [C-]#[N+]C(=Cc1ccc(OC)cc1)C(=Cc1ccc(OC(=O)c2ccccc2)cc1)[N+]#[C-] [Compound No. 8, 1-(4'-benzoyloxyphenyl)-4-(4'-methoxyphenyl)-2,3-diisocyano-1,3-butadiene] the Tumor weight (Meth-A solid tumor; 30 mg/kg/day) was 1.40 ± 0.30 g, the “Inhibition of tumor growth” value (Meth-A solid tumor; 30 mg/kg/day) was 26.3% and the LD50 [1] was > 300 mg/kg. The IC50 (Meth-A cells) was 1.7 µg/mL (≈ 4.18 µM).

In the case of [C-]#[N+]C(=Cc1ccc(OC)cc1)C(=Cc1ccc(OCc2ccc(Cl)cc2)cc1)[N+]#[C-] [Compound No. 9, 1-[4'-(4"-chlorophenyl)methyloxyphenyl]-4-(4'-methoxy-phenyl)-2,3-diisocyano-1,3-butadiene], the Tumor weight (Meth-A solid tumor; 30 mg/kg/day) was 0.60 ± 0.50 g, the “Inhibition of tumor growth” value (Meth-A solid tumor; 30 mg/kg/day) was 68.4% and the LD50 [1] was > 300 mg/kg. The IC50 (Meth-A cells) was 1.8 µg/mL (≈ 4.22 µM).

In the case of [C-]#[N+]C(=Cc1ccc(O)cc1)C(=Cc1ccc(OC)cc1)[N+]#[C-] [xanthocillin X monomethyl ether, 1-(4'-hydroxyphenyl)-2,3-diisocyano-4-(4'-methoxyphenyl)-1,3-butadiene], the “inhibition of biosynthesis of prostaglandin or thromboxane” value [2] is given as “would inhibit the biosynthesis of prostaglandin or thromboxane”, the “proliferation of Ehrich ascites tumor” value (Ehrich ascites tumor; during administration) is given as “would suppress the proliferation of Ehrich ascites tumor” and the “proliferation of cancer cells after stopping the administration” value (Ehrich ascites tumor; immediately after stopping the administration) is given as “the cancer cells would proliferate again immediately after stopping the administration of this compound”.
